Laboratory results from patent US8211412B2, “Method for skin whitening” (Shiseido Company Ltd., priority 2009, dated 2012).

Test system: Mouse B16 melanoma cells
Test: Melanin production inhibition test
Type: cell-based
Details: 3 days after addition, graded by minimum non-cytotoxic concentration at which ratio of melanin amount was 80% or less
Description: A test for melanin production inhibition by the compounds of the formula (1) was conducted. The test method is as follows.
Melanin Production Inhibition Test
(1) Inoculation of Cells and Addition of Test Substances
Mouse B16 melanoma cells were inoculated in a six well plate at 100,000 cells/well. The next day, test substance solutions (solvent: DMSO) were added.
(2) Cell Proliferation Test
Three days after the addition of the test substance solution, the medium was removed by aspiration. Then 1 ml of EMEM medium containing 10% Alamar Blue solution was added, and a reaction was allowed to proceed at 37° C. After 30 minutes, 100 μL of the reaction mixture was transferred to a 96 well plate and fluorescence was measured at an excitation wavelength of 544 nm and a measurement wavelength of 590 nm. Using the value thus measured as a relative value of cell count, a ratio of the cell count (% cell count) of the test substance-added group to the test substance-absent group (group in which only the solvent was added) was calculated. […] It was determined that a compound having the % cell count of 80% or more was non-cytotoxic, and that a compound having the % cell count of less than 80% was cytotoxic.
(3) Quantification of Melanin
The cells after the cell proliferation test were washed with PBS three times, and then lysed by addition of 200 μL of 1M NaOH to measure an absorbance at 475 nm. […]

## CC1(C)CSC(Nc2ccccc2)=N1 [Compound 1, 4,4-dimethyl-N-phenyl-4,5-dihydrothiazol-2-amine]
  Inhibitory effect on melanin production: ⊚ (the minimum concentration for inhibition of melanin production was 1 ppm or less)
